Values of other authors in patent US20190117669A1, “Methods for Treating NSAID-Induced Cardiovascular, Cerebrovascular, or Renovascular Adverse Events” (University of Utah Research Foundation, priority 2016, published 2019).

Key:
[1] = rats, all misoprostol-treated groups
[2] = dogs, misoprostol 3 mcg/kg every 8 hours for 8 days

For CCCCC(C)(O)C/C=C/[C@H]1[C@H](O)CC(=O)[C@@H]1CCCCCCC(=O)OC (mixture of isomers) [misoprostol], the blood pressure [1] is listed as “increased” and the “azotemia, hyperphosphatemia and renal histopathologic changes versus gentamicin alone” value [2] is listed as “more severe azotemia, hyperphosphatemia, and renal histopathologic changes”.
